Measurements published in patent US20100305113A1, “Substituted Imidazopyridazines as Lipid Kinase Inhibitors” (priority 2007, published 2010).

Legend:
PI3K alfa = target: T1, PI3K alfa (Homo sapiens, UniProt P42336); assay: PI3K alfa enzymatic assay (Kinase-Glo luminescence); format: biochemical; conditions: Enzymatic Data
T1 construct: p85(iSH2) fusion partner (same polypeptide; see partner chain) (N); 12x Gly linker (N); His tag (C); made in house; host or cells: baculovirus; Tn5 (Trichoplusia ni) or TiniPro insect cells
T1 sequence (P42336 with tags, fused parts or gaps limits assumed): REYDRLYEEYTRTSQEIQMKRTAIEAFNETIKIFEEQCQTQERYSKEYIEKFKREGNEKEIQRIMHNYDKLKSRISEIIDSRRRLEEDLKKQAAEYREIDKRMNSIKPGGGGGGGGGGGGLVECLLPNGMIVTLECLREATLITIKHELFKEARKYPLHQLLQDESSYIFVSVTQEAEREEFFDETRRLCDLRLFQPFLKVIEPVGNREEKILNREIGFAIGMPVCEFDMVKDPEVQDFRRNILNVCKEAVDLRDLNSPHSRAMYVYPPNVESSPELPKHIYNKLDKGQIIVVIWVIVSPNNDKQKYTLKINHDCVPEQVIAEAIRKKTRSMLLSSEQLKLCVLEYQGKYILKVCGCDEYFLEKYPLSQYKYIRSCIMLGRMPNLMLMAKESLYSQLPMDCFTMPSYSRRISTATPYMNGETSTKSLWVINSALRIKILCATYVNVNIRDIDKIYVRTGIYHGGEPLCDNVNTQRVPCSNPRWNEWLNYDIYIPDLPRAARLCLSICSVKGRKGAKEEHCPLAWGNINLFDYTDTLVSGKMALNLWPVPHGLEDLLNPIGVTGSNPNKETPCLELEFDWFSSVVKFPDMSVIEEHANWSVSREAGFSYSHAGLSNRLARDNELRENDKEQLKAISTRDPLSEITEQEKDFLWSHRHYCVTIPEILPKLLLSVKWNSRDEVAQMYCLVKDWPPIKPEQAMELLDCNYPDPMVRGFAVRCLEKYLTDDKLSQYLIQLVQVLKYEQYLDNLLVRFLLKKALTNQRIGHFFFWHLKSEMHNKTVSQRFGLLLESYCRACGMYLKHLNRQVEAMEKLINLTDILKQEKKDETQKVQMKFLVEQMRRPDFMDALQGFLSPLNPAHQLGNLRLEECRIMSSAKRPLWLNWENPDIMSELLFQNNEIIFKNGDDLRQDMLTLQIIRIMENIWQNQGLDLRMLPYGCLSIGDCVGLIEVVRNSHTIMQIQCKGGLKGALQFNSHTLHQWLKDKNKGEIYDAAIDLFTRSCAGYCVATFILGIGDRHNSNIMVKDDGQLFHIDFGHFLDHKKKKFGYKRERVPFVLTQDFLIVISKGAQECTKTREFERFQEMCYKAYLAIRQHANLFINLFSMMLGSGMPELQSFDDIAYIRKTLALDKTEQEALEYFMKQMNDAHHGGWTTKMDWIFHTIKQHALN
Outline: (§1)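 Kinase-Glo ATP-depletion luminescence with 1 μM ATP and 10 μg/mL phosphatidylinositol in pH 7.5 Tris buffer; 10 nM PI3Kα incubated 60 min, 150 nM PI3Kγ 120 min, at room temperature. IC50 by 4-parameter logistic fit over 8 concentrations.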

PI3K gamma = target: T2, PI3K gamma (Homo sapiens, UniProt P48736); assay: PI3K gamma enzymatic assay (Kinase-Glo luminescence); format: biochemical; conditions: Enzymatic Data
T2 construct: His tag (C); made in house; host or cells: construct from Roger Williams lab (MRC LMB); baculovirus (pVL1393); Tn5 (Trichoplusia ni) or TiniPro insect cells
T2 sequence (P48736 144-1102 limits assumed): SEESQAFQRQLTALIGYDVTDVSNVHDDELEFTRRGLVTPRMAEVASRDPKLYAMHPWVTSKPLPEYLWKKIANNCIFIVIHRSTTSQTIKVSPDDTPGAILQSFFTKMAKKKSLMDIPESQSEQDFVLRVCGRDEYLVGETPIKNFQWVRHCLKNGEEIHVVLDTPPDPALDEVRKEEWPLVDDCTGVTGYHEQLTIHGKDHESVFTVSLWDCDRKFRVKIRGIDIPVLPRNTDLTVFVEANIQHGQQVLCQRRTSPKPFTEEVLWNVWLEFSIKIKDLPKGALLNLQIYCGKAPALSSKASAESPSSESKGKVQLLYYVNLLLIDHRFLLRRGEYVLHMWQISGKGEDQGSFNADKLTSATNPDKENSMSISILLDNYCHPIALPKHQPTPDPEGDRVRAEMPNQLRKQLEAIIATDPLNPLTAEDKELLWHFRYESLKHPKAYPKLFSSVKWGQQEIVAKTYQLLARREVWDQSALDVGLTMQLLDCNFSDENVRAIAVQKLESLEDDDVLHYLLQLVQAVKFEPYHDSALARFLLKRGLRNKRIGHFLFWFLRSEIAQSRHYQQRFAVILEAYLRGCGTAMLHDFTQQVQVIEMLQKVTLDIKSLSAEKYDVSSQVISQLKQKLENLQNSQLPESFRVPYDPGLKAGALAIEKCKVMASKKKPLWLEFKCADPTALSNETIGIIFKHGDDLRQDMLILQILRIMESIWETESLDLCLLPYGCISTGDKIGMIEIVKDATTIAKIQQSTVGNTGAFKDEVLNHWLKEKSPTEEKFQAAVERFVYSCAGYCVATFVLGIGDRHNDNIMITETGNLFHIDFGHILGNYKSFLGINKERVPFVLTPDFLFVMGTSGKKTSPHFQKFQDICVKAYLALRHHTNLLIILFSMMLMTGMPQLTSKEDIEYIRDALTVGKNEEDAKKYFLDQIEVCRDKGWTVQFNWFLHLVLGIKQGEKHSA
Outline: as §1

PI3K beta = target: T3, PI3K beta (Homo sapiens, UniProt P42338); assay: PI3K beta enzymatic assay (Kinase-Glo luminescence); format: biochemical; conditions: Enzymatic Data
T3 construct: for the full-length p110-b subunit are generated and fused by overlapping PCR; p85(iSH2) fusion partner (same polypeptide; see partner chain) (N); Gly linker (N); His tag (C); made in house; host or cells: baculovirus; Tn5 (Trichoplusia ni) or TiniPro insect cells
T3 sequence (P42338 with tags, fused parts or gaps limits assumed): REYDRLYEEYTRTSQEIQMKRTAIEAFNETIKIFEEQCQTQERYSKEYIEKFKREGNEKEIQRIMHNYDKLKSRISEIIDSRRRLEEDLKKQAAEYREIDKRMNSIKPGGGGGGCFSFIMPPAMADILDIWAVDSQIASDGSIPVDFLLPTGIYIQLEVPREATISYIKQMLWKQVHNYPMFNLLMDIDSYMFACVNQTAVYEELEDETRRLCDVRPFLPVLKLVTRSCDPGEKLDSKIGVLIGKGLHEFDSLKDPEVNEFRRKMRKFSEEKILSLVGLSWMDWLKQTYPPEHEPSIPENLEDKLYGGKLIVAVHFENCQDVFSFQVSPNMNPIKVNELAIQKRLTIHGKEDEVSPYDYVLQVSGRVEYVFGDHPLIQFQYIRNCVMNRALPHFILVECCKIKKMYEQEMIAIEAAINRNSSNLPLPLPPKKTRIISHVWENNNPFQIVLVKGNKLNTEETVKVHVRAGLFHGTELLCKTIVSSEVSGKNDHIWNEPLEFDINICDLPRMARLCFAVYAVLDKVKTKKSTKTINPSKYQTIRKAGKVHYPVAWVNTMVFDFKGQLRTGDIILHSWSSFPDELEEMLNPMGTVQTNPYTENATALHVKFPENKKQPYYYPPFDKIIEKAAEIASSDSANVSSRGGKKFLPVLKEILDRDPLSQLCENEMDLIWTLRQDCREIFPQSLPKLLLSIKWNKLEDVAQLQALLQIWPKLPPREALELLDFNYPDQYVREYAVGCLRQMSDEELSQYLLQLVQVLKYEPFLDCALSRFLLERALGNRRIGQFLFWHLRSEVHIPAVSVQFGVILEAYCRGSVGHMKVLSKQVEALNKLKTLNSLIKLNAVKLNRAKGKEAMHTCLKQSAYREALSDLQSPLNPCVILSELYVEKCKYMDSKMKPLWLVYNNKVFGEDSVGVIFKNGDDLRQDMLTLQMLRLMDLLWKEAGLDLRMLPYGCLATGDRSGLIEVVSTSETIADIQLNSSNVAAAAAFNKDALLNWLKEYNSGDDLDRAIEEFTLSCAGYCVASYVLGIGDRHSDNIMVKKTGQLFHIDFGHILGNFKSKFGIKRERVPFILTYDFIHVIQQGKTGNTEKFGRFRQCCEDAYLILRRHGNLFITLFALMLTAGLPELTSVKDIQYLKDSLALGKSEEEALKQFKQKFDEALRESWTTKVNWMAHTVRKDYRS
Outline: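 Full-length p110β with p85 iSH2 (His-tagged) at 25 nM, 10 μg/mL phosphatidylinositol and 1 μM ATP, in pH 7.5 Tris with 3 mM MgCl2, 60 min at room temperature. Remaining ATP read by Kinase-Glo luminescence; IC50 from 4-parameter logistic fit over 8 concentrations.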

PI3K delta = target: T4, PI3K delta (Homo sapiens, UniProt O00329); assay: PI3K delta enzymatic assay (Kinase-Glo luminescence); format: biochemical; conditions: Enzymatic Data
T4 construct: for the full-length p110-d subunit are generated and fused by overlapping PCR; p85(iSH2) fusion partner (same polypeptide; see partner chain) (N); Gly linker (N); His tag (C); made in house; host or cells: baculovirus; Tn5 (Trichoplusia ni) or TiniPro insect cells
T4 sequence (O00329 with tags, fused parts or gaps limits assumed): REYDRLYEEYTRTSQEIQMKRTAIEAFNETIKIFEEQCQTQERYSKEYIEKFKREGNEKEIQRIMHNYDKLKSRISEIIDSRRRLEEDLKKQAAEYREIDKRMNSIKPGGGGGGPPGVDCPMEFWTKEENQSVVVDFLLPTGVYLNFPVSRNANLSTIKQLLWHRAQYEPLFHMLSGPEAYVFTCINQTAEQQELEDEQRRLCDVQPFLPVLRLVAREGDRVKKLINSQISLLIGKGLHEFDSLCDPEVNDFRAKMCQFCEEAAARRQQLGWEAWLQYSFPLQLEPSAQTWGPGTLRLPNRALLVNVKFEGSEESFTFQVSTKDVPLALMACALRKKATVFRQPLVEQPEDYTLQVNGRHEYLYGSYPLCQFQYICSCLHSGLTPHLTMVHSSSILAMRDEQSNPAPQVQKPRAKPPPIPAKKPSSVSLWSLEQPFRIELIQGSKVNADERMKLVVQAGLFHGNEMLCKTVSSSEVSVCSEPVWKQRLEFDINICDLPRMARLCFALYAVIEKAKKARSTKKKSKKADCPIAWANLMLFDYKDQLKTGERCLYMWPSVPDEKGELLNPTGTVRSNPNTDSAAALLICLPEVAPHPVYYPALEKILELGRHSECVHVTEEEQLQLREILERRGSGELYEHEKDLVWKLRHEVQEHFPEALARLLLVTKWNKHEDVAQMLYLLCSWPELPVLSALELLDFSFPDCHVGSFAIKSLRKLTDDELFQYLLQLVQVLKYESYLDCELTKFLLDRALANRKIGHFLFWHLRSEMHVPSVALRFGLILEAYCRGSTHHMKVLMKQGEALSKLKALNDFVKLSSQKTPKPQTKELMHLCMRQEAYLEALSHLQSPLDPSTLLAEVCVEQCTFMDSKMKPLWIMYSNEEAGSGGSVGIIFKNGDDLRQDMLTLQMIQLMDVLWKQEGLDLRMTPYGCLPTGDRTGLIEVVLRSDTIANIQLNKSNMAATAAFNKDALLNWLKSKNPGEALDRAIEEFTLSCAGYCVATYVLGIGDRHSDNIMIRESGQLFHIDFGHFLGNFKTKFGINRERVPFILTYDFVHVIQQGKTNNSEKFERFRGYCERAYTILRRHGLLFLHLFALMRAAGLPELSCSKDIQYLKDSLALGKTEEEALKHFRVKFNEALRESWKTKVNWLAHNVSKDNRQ
Outline: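 10 nM PI3Kδ p85(iSH2)-Gly linker-full-length p110δ His-tagged construct with 10 µg/mL phosphatidylinositol and 1 µM ATP. Buffer: 10 mM Tris pH 7.5, 3 mM MgCl2, 50 mM NaCl, 0.05% CHAPS, 1 mM DTT; 60 min RT. Kinase-Glo luminescence; IC50 from 4-parameter logistic fit over 8 concentrations.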

SMILES	IC50 (PI3K alfa) [µM]	IC50 (PI3K gamma) [µM]	melting point [°C]	IC50 (PI3K beta) [µM]	IC50 (PI3K delta) [µM]
COC(=O)NC1(COc2ccc(-c3ccc4nc(C)c(-c5cnc(N)c(C(F)(F)F)c5)n4n3)cc2)COC1 [Example 115, (3-{4-[3-(6-Amino-5-trifluoromethyl-pyridin-3-yl)-2-methyl-imidazo[1,2-b]pyridazin-6-yl]-phenoxymethyl}-oxetan-3-yl)-carbamic acid methyl ester]	0.295	3.16	202 to 204	> 9.1	1.97
Cc1nc2ccc(-c3ccc(OCC4(NC(=O)C5CC5)COC4)cc3)nn2c1-c1cnc(N)c(C(F)(F)F)c1 [Example 110, Cyclopropanecarboxylic acid (3-{4-[3-(6-amino-5-trifluoromethyl-pyridin-3-yl)-2-methyl-imidazo[1,2-b]pyridazin-6-yl]-phenoxymethyl}-oxetan-3-yl)-amide]	0.126	2.08	191 to 193	8.19	1.59
Cc1nc2ccc(-c3ccc(OCC4(NC(=O)C(F)(F)F)COC4)cc3)nn2c1-c1cnc(N)c(C(F)(F)F)c1 [Example 116, N-(3-{4-[3-(6-Amino-5-trifluoromethyl-pyridin-3-yl)-2-methyl-imidazo[1,2-b]pyridazin-6-yl]-phenoxymethyl}-oxetan-3-yl)-2,2,2-trifluoro-acetamide]	0.059	4.67	214 to 216	4.24	0.937
COc1cccc(C(=O)NCCOc2ccc(-c3ccc4nc(C)c(-c5cnc(N)c(C(F)(F)F)c5)n4n3)cc2OC)c1 [Example 39]	0.368	> 9.1		> 9.1	> 9.1
COc1ccc(-c2ccc3nc(C)c(-c4cc[nH]n4)n3n2)cc1OC [Example 20, 6-(3,4-Dimethoxy-phenyl)-2-methyl-3-(1H-pyrazol-3-yl)-imidazo[1,2-b]pyridazine]	0.22	0.358		3.24	1.39
CCS(=O)(=O)c1ccc(-c2c(C)nc3ccc(-c4ccc(OC5CCN(C(=O)OC(C)(C)C)CC5)c(OC)c4)nn23)cc1 [Example 99, 4-{4-[3-(4-Ethanesulfonyl-phenyl)-2-methyl-imidazo[1,2-b]pyridazin-6-yl]-2-methoxy-phenoxy}-piperidine-1-carboxylic acid tert-butyl ester]	> 9.1	> 9.1		> 9.1	> 9.1
COc1ccc(-c2ccc3nc(C)c(-c4ccnc(N(C)CCN(C)C)n4)n3n2)cc1OC [Example 88, N-{4-[6-(3,4-Dimethoxy-phenyl)-2-methyl-imidazo[1,2-b]pyridazin-3-yl]-pyrimidin-2-yl}-N,N′,N′-trimethyl-ethane-1,2-diamine]	0.051	0.098		3.03	0.041
COc1cc(-c2ccc3nc(C)c(-c4cnc(N)c(C(F)(F)F)c4)n3n2)ccc1OCCCNC(=O)OC(C)C [Example 80]	0.175	1.93		> 9.1	2.7
CCOc1ccc(-c2ccc3nc(C)c(-c4ccc(N5CCOCC5)nc4)n3n2)cc1OC [Example 14, 6-(4-Ethoxy-3-methoxy-phenyl)-2-methyl-3-(6-morpholin-4-yl-pyridin-3-yl)-imidazo[1,2-b]pyridazine]	0.138	0.688		5.15	2.05
Cc1nc2ccc(-c3ccc(OCC4(N)COC4)cc3)nn2c1-c1cnc(N)c(C(F)(F)F)c1 [Example 111, 5-{6-[4-(3-Amino-oxetan-3-ylmethoxy)-phenyl]-2-methyl-imidazo[1,2-b]pyridazin-3-yl}-3-trifluoromethyl-pyridin-2-ylamine]	0.131	1.19	198 to 200	2.39	0.895
